This passage reports IC50 results from patent US20220144826A1, “Heteroaromatic and Heterobicyclic Aromatic Derivatives for the Treatment of Ferroptosis-Related Disorders” (COLLABORATIVE MEDICINAL DEVELOPMENT, LLC, priority 2019, published 2022).

The test system of this assay is N27 rat dopaminergic neural cells. Description: MTT assay in N27 rat dopaminergic neural cells: inhibition of RSL3-induced cell death (ferroptosis). In kind it is cell-based. The conditions noted are these: Rattus norvegicus, N27, 24 h, ferroptosis induced by 0.5 μM RSL3, 24 hours, viability by MTT. A general note: Tetrazolium assays rely on reduction of a dye to a coloured formazan, in cell work by metabolically active cells.

Molecules are shown by their SMILES.

What is called IC50 is the point on the concentration scale where inhibition reaches its midpoint.

Take `CCCCCc1nc(NC2CCOC2)c2c(n1)OCCN2` (stereo not drawn) [Compound B-604, 2-pentyl-N-tetrahydrofuran-3-yl-6,7-dihydro-5H-pyrimido[4,5-b][1,4]oxazin-4-amine]: it took 388 nM to reach half-maximal inhibition (IC50).
To `CCCCCc1ccc(NC(C)CC)c(NC2CCCC2)n1` (stereo not drawn) [Compound H-72, N^2-cyclopentyl-6-pentyl-N^3-sec-butyl-pyridine-2,3-diamine] belongs 6 nM; to `CCC(C)Nc1ccc(-c2ccc(C)cc2)nc1NC1CCCC1` (stereo not drawn) [Compound H-61, N^2-cyclopentyl-6-(p-tolyl)-N^3-sec-butyl-pyridine-2,3-diamine], 7 nM.
The result for `N#Cc1nc2c(c(NC3CCCC3)n1)NCCC2` [Compound F-38, 4-(cyclopentylamino)-5,6,7,8-tetrahydropyrido[3,2-d]pyrimidine-2-carbonitrile] reads 812 nM; that for `CC1=Nc2cc(C#N)ccc2NC1(C)C` [Compound Q-912, 2,2,3-trimethyl-1H-quinoxaline-6-carbonitrile], more than 3000 nM; that for `CCCCC(=O)c1nc(NC2CCCC2)c2c(n1)OCCN2` [Compound B-763, 1-[4-(cyclopentylamino)-5H,6H,7H-pyrimido[4,5-b][1,4]oxazin-2-yl]pentan-1-one], 391 nM.
The compound `Cc1ccc(-c2nc3c(c(NC4CCCC4)n2)NCCC3)cc1` [Compound A-32, N-cyclopentyl-2-(p-tolyl)-5,6,7,8-tetrahydropyrido[3,2-d]pyrimidin-4-amine] had a concentration for half-maximal inhibition (IC50) of 6 nM.
To `CCCC(=O)c1ccc(N)c(NC2CC(F)(F)C2)n1` [Compound P-46, 1-[5-amino-6-[(3,3-difluorocyclobutyl)amino]-2-pyridyl]butan-1-one] belongs 498 nM.
The result for `CCCCC(=O)c1cc2c(c(NC3CCOC3)c1)NCCC2` (stereo not drawn) [Compound Q-879, 1-[8-(tetrahydrofuran-3-ylamino)-1,2,3,4-tetrahydroquinolin-6-yl]pentan-1-one] reads 16.8 nM.
The result for `CCC(C)Nc1ccc(-c2ccccn2)nc1NC1(C)CCOC1` [Compound L-22, N^2-(3-methyltetrahydrofuran-3-yl)-6-(2-pyridyl)-N^3-sec-butyl-pyridine-2,3-diamine] reads 14 nM; that for `CCCCC(O)c1nc2c(c(NC3CCCC3)n1)NCCC2` (stereo not drawn) [Compound C-79, 1-[4-(cyclopentylamino)-5,6,7,8-tetrahydropyrido[3,2-d]pyrimidin-2-yl]pentan-1-ol], 112 nM.
`CC1(Nc2nc(-c3ccc(F)cc3)ccc2NC2CCOCC2)CCOC1` (stereo not drawn) [Compound N-53, 6-(4-fluorophenyl)-N^2-(3-methyltetrahydrofuran-3-yl)-N^3-tetrahydropyran-4-yl-pyridine-2,3-diamine] returned an IC50 of 1 nM.
